Laboratory results published in publication PMC10786919, “Design-rules for stapled peptides with in vivo activity and their application to Mdm2/X antagonists” (Nature Communications, 2024).
≈ marks a conversion by molar mass, not a printed value. Where two headings read alike, the source gives them in different places. Positions of bridges follow the written chain, without caps; N, C: chain ends. Non-standard residues stand in square brackets, D forms with d. Residues, ends and D or L forms follow the SMILES beside them. Lys(N3) = [N-]=[N+]=NCCCC[C@H](N)C(=O)O; R8 = C=CCCCCCC[C@@](C)(N)C(=O)O; Cba = N[C@@H](CC1CCC1)C(=O)O; S5 = C=CCCC[C@](C)(N)C(=O)O; βAla = NCCC(=O)O

Tests used:
[1] = Solubility assay (kinetic solubility, PBS pH 7); type: physicochemical; conditions: for solubility kinetic: read-out: Solubility
Summary of the method: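 Next, measure peak areas of sample and standard. Finally, multiply their ratio by the standard concentration to obtain solubility (µM).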

[2] = Experimental LogD (partition coefficient); conditions: for logD: not stated, Partition Coeff LogD
[3] = test system: p53 responsive β-lactamase reporter in HCT116 cells; assay: cells; type: cell-based
Summary of the method: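 Read-out used the ToxBLAzer Dual Screen for β-lactamase driven by a stably integrated p53-responsive reporter. Assay: 8000 HCT116 cells per well at 0.5% final DMSO. Reported numbers are geometric means over a minimum of three biological replicates.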

in vitro = conditions: Nanoclick permeability assay EC50
Summary of the method: (§1)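 Azido-peptide permeability was read as loss of NanoBRET signal (donor 450 nm, acceptor 610 nm) after adding NanoBret618-azide at 10 μM final.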

[4] = test system: cells transiently transfected with the NanoLuc-HaloTag vector; assay: Nanoclick permeability assay; conditions: for Nanoclick permeability assay % Effect: 4Hr; for cell entry EC50: 4 h
Summary of the method: as §1

[5] = test system: Jump-In T-REx CHO-K1 BLA cells; assay: cells; type: cell-based; conditions: for EC50: read-out: TETCHO: Counterscreen EC50
[6] = Lactate dehydrogenase (LDH) release assay; type: cell-based; conditions: LDH: Cytotoxicity assay: EC50
Summary of the method: (§2)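 Membrane damage measured as lactate dehydrogenase release (CytoTox-ONE kit) from p53-responsive β-lactamase reporter HCT116 cells plated at 8000 per well. Final DMSO 0.5%; geometric mean reported from a minimum of three biological replicates.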

HCT116 cells = assay: Lactate dehydrogenase (LDH) release assay; type: cell-based
Summary of the method: as §2

human Mdm2 1–125 = target: T1, human Mdm2 1–125 (Homo sapiens, UniProt Q00987); assay: Mdm2 binding by competitive fluorescence anisotropy assay (FP binding); conditions: read-out: FP binding assay KD
T1 construct: GST (N); His6 (internal); TEV cleavage site (ENLYFQG) (internal); made in house; host or cells: BL21 (DE3) Rosetta T1R Escherichia coli
T1 sequence (Q00987 with tags, fused parts or gaps): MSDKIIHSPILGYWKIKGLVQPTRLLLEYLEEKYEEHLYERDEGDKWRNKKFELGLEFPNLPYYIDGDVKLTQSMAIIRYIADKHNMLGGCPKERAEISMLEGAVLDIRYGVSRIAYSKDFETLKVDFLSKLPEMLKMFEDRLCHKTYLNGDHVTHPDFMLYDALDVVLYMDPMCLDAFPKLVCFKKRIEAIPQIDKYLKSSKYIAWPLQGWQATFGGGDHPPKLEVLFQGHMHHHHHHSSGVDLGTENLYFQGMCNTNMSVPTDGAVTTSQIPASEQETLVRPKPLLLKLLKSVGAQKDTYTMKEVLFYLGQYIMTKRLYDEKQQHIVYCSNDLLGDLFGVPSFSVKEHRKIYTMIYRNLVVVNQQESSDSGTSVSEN

EPSA = type: physicochemical
Ca Ski cell line = test system: Ca Ski cell line
Summary of the method: (§3)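 Compound dilution series (10 points, 3-fold, 10 mM top stock in DMSO) tested on overnight-plated Ca Ski cells in RPMI1640/10% FBS and on blasticidin-selected p53RE-bla HCT-116 cells in McCoy's 5A; read-out was CellTiter-Glo 2.0 luminescence after room-temperature equilibration.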

[7] = test system: CellSensor p53RE-bla HCT-116 Cell Line
Summary of the method: as §3

[8] = pH 7, aqueous buffer, kinetic from dmso stock, pH 7, PBS
[9] = 0% FBS 4Hr, read-out: p53 reporter assay: EC50
[10] = 10% FBS 4Hr, read-out: p53 reporter assay: EC50
[11] = 10% FBS 16Hr, read-out: p53 reporter assay: EC50

Row | Compound | EC50 [3, 9] | cell entry EC50 (in vitro) | Nanoclick permeability assay % Effect [4] | TETCHO: Counterscreen % Effect ([5]; 0% FBS 4Hr) | EC50 ([5]; 0% FBS 4Hr) | EC50 [6] | p53 reporter assay: % Effect ([3]; 0% FBS 4Hr) | p53 reporter assay: % Effect ([3]; 10% FBS 4Hr) | EC50 [3, 10] | p53 reporter assay: % Effect ([3]; 10% FBS 16Hr) | EC50 [3, 11] | TETCHO: Counterscreen % Effect ([5]; 10% FBS 4Hr) | EC50 ([5]; 10% FBS 4Hr) | TETCHO: Counterscreen % Effect ([5]; 10% FBS 16Hr) | EC50 ([5]; 10% FBS 16Hr) | further results
1 | CC(=O)N[C@@H](CCCCN=[N+]=[N-])C(=O)NCCC(=O)N[C@@H](CC(C)C)C(=O)N[C@H](C(=O)N[C@@H](CO)C(=O)N[C@]1(C)CCCCCCC=CCCC[C@@](C)(C(=O)N[C@@H](CO)C(=O)N[C@@H](C)C(=O)N[C@@H](C)C(N)=O)NC(=O)[C@H](CO)NC(=O)[C@H](CCC(N)=O)NC(=O)[C@H](C)NC(=O)[C@H](CO)NC(=O)[C@H](Cc2ccc(O)cc2)NC(=O)[C@H](CCC(=O)O)NC1=O)[C@@H](C)O [MP-3352] (Ac-[Lys(N3)][βAla]LTS[R8]EYSAQS[S5]SAA-NH2; staple 6-13) | > 50.6 µM | 8.79 µM | 36.66% | 0.41% | > 50.6 µM | > 50.6 µM | – | – | – | – | – | – | – | – | – | solubility kinetic [1, 8]: 28 µM (≈ 49.6 µg/mL); logD [2]: 1.55; EPSA (physchem): 197 A^2; LDH: Cytotoxicity assay: % Effect (HCT116 cells): -2.39%
2 | CC(=O)N[C@@H](CCCCN)C(=O)NCCCCCC(=O)N[C@H](C(=O)N[C@@H](CO)C(=O)N[C@@H](Cc1ccccc1)C(=O)N[C@]1(C)CCCCCCC=CCCC[C@@](C)(C(N)=O)NC(=O)[C@H](CC(C)C)NC(=O)[C@H](CC(C)C)NC(=O)[C@H](C)NC(=O)[C@H](Cc2c[nH]c3ccccc23)NC(=O)[C@H](Cc2ccc(O)cc2)NC(=O)[C@H](CCC(=O)O)NC1=O)[C@@H](C)O [MP-716] | 14.1 µM | > 10 µM | 9.756% | 43.21% | > 50.4 µM | > 50.7 µM | 93.75% | 161.5% | 15.9 µM | 18.31% | > 50.4 µM | 45.82% | > 50.4 µM | 13.83% | > 50.4 µM | Kd (human Mdm2 1–125): 0.011 µM; Solubility ([1]; pH 7, PBS): Poorly Behaved; Partition Coeff LogD [2]: Poorly Behaved
3 | CC(=O)N[C@@H](CCCCN)C(=O)NCCCCCC(=O)N[C@H](C(=O)N[C@@H](CO)C(=O)N[C@@H](Cc1ccccc1)C(=O)N[C@]1(C)CCCCCCC=CCCC[C@@](C)(C(=O)N[C@@H](CCC(=O)O)C(=O)N[C@@H](CC(N)=O)C(=O)N[C@@H](Cc2ccccc2)C(N)=O)NC(=O)[C@H](CC(C)C)NC(=O)[C@H](CC(C)C)NC(=O)[C@H](C)NC(=O)[C@H](Cc2c[nH]c3ccccc23)NC(=O)[C@H](Cc2ccc(O)cc2)NC(=O)[C@H](CCC(=O)O)NC1=O)[C@@H](C)O [MP-82094] | 1.55 µM | – | 69.87% | 52.98% | 45.8 µM | – | 109.5% | 125.5% | 3.92 µM | 78.69% | 16.1 µM | 49.08% | 20 µM | 82.5% | 7.15 µM | EPSA (EPSA): Poorly Behaved; EC50 (HCT116 cells): 50.5 µM
4 | CC(=O)N[C@@H](CCCCN=[N+]=[N-])C(=O)NCCC(=O)N[C@@H](CC(C)C)C(=O)N[C@H](C(=O)N[C@@H](Cc1ccccc1)C(=O)N[C@]1(C)CCCCCCC=CCCC[C@@](C)(C(=O)N2CCC[C@H]2C(=O)N2CCC[C@H]2C(=O)N2CCC[C@H]2C(=O)N2CCC[C@H]2C(=O)N2CCC[C@H]2C(=O)N2CCC[C@H]2C(N)=O)NC(=O)[C@H](CC2CCC2)NC(=O)[C@H](CCC(N)=O)NC(=O)[C@H](C)NC(=O)[C@H](Cc2c[nH]c3ccccc23)NC(=O)[C@H](Cc2ccc(O)cc2)NC(=O)[C@H](CCC(=O)O)NC1=O)[C@@H](C)O [MP-094] | – | – | – | – | – | – | – | – | – | – | – | – | – | – | – | solubility kinetic ([1]; pH 7): 158 µM (≈ 367 µg/mL); cell entry EC50 [4]: 0.942 µM; EC50 (Ca Ski cell line; 72 h): > 49.8 µM; EC50 ([7]; 72 h): 1.33 µM
5 | CC(=O)N[C@@H](CCCCN=[N+]=[N-])C(=O)NCCC(=O)N[C@@H](CC(C)C)C(=O)N[C@H](C(=O)N[C@@H](Cc1ccccc1)C(=O)N[C@]1(C)CCCCCCC=CCCC[C@@](C)(C(=O)N[C@@H](C)C(=O)N[C@@H](C)C(=O)N[C@@H](C)C(=O)N[C@@H](C)C(=O)N[C@@H](C)C(=O)N[C@@H](C)C(=O)N[C@@H](C)C(N)=O)NC(=O)[C@H](CC2CCC2)NC(=O)[C@H](CCC(N)=O)NC(=O)[C@H](C)NC(=O)[C@H](Cc2c[nH]c3ccccc23)NC(=O)[C@H](Cc2ccc(O)cc2)NC(=O)[C@H](CCC(=O)O)NC1=O)[C@@H](C)O [MP-471] | – | – | – | – | – | – | – | – | – | – | – | – | – | – | – | cell entry EC50 [4]: 1.35 µM; EC50 (Ca Ski cell line; 72 h): 26.7 µM; EC50 ([7]; 72 h): 10.7 µM
6 | CC(=O)N[C@H](C(=O)N[C@@H](CO)C(=O)N[C@@H](Cc1ccccc1)C(=O)N[C@]1(C)CCCCCCC=CCCC[C@@](C)(C(N)=O)NC(=O)[C@H](CC(C)C)NC(=O)[C@H](CC(C)C)NC(=O)[C@H](C)NC(=O)[C@H](Cc2c[nH]c3ccccc23)NC(=O)[C@H](Cc2ccc(O)cc2)NC(=O)[C@H](CCC(=O)O)NC1=O)[C@@H](C)O [MP-090] | 6.5 µM | > 10 µM | 42.09% | 137.4% | 21.2 µM | > 50.7 µM | 110.7% | 88.51% | 26.2 µM | 4.432% | > 50.4 µM | 106.1% | 31.5 µM | 108.5% | 32.9 µM | solubility kinetic [1, 8]: 77 µM (≈ 113 µg/mL); logD [2]: 2.69; EPSA (EPSA; EPSA): 201 A^2; EC50 (HCT116 cells): 50.5 µM
7 | CC(=O)N[C@@H](CCCCN=[N+]=[N-])C(=O)NCCC(=O)N[C@@H](CC(C)C)C(=O)N[C@H](C(=O)N[C@@H](Cc1ccccc1)C(=O)N[C@]1(C)CCCCCCC=CCCC[C@@](C)(C(=O)N[C@@H](CCC(=O)O)C(=O)N[C@@H](C)C(=O)N[C@@H](C)C(=O)N[C@@H](C)C(=O)N[C@@H](C)C(=O)N[C@H](C)C(N)=O)NC(=O)[C@H](CC2CCC2)NC(=O)[C@H](CCC(N)=O)NC(=O)[C@H](C)NC(=O)[C@H](Cc2c[nH]c3ccccc23)NC(=O)[C@H](Cc2ccc(O)cc2)NC(=O)[C@H](CCC(=O)O)NC1=O)[C@@H](C)O [MP-834, Ac-K(N3)-(betaAla)-LTF-(R8)-EYWAQ-(Cba)-(S5)-EAAAA-(D-Ala)-NH2] (Ac-[Lys(N3)][βAla]LTF[R8]EYWAQ[Cba][S5]EAAAA[dA]-NH2; staple 6-13) | – | – | 121.4% | -4.911% | – | – | – | – | – | – | – | – | – | -13.19% | – | solubility kinetic [1]: 167 µM (≈ 372 µg/mL); p53 reporter assay % Effect ([3]; 0% FBS 4Hr): 103.2%; p53 reporter assay % Effect ([3]; 10% FBS 16Hr): 95.7%; EC50 ([3]; read-out: Cell EC50 (4 hr, 0% FBS), p53 reporter assay, 4 hr, 0% FBS): 1 µM; EC50 ([3]; read-out: Cell EC50 (16 hr, 10% FBS), p53 reporter assay, 16 hr, 10% FBS): 3.4 µM; TETCHO: Counterscreen % Effect ([5]; 0% FBS 16Hr): -7.249%; Proliferation % inhibition at 50 µM Ca Ski (Ca Ski cell line; Ca Ski, 50 µM): -3.2%; EC50 (Ca Ski cell line; read-out: Proliferation EC50 Ca Ski (Off-target), Ca Ski): > 49.8 µM; EC50 ([7]; read-out: Proliferation EC50 HCT116 (On-target), HCT116): 1.4 µM; LDH: Cytotoxicity assay % Effect (HCT116 cells; 0% FBS 4Hr): 6.58%; LDH: Cytotoxicity assay % Effect (HCT116 cells; 10% FBS 16Hr): 9.756%
